The nature of data set [1]: Hygroscopicity of the free base and its salts. Conditions: solid form. The data set is classed as physicochemical. The source says:
(§1) The advantageous properties of salts according to the invention can be seen from the table below:
(§2) The salts were all obtained in good yields.

Data set [2] is described as follows: Thermal profile / melt event of the free base and its salts. The class given is physicochemical. Conditions: solid form.
Description: as §1, §2

For data set [3] the following is noted: Norbury et al. 1983; cited from earlier work.
The conditions of data set [4]: Balikova et al. 2001; cited from earlier work.
For data set [5] the following is noted: rat model; Lu et al. 2005, Xie et al. 2005; cited from earlier work.
Where [6] appears, read: listed as maleic acid addition salt.

Turning to `CCC1(c2cccc(OC(=O)Nc3ccc(C(=O)O)cc3)c2)CCCCN(C)C1.O=C(O)/C=C\C(=O)O` (stereo not drawn) [Meptazinol PABA Carbamate Maleic Acid Addition Salt], the Hygroscopic result is given as “no” in data set [1] and “not be hygroscopic” in data set [1] (setting [6]). Also, the results for the “Good thermal profile with clean melt event” value (“Good thermal profile” for short) in data set [2] and in data set [2] (setting [6]) were “yes” and “good thermal profiles with clean melt events”, respectively.

Regarding `CCC1(c2cccc(OC(=O)Nc3ccc(C(=O)O)cc3)c2)CCCCN(C)C1.O=C(O)CC(=O)O` (stereo not drawn) [Meptazinol PABA Carbamate Malonic Acid Addition Salt], the Hygroscopic entry in data set [1] is “not be hygroscopic and no”. In addition, the “Good thermal profile” value was “yes” in data set [2] and “good thermal profiles with clean melt events” in data set [2] (listed as malonic acid addition salt).

On to `CCC1(c2cccc(OC(=O)Nc3ccc(C(=O)O)cc3)c2)CCCCN(C)C1.CS(=O)(=O)O` (stereo not drawn) [Meptazinol PABA Carbamate Methanesulphonic Acid Addition Salt], for which the Hygroscopic result in data set [1] is “not be hygroscopic and no”. Also, the “Good thermal profile” value was “yes” in data set [2] and “good thermal profiles with clean melt events” in data set [2] (listed as methanesulphonic acid addition salt).

Turning to `CCC1(c2cccc(OC(=O)Nc3ccc(C(=O)O)cc3)c2)CCCCN(C)C1.O=P(O)(O)O` (stereo not drawn) [Meptazinol PABA Carbamate Phosphoric Acid Addition Salt], the Hygroscopic entry in data set [1] is “no”; in data set [1] (listed as phosphoric acid addition salt), “not be hygroscopic”. Further, the “Good thermal profile” value in data set [2] is “no”.

Take `CCC1(c2cccc(OC(=O)Nc3ccc(C(=O)O)cc3)c2)CCCCN(C)C1.O=S(=O)(O)O` (stereo not drawn) [Meptazinol PABA Carbamate Sulphuric Acid Addition Salt]: the Hygroscopic entry in data set [1] is “not be hygroscopic and no”. Moreover, the “Good thermal profile” value in data set [2] is reported as “yes”; in data set [2] (listed as sulphuric acid addition salt) it was “good thermal profiles with clean melt events”.

`CCC1(c2cccc(O)c2)CCCCN(C)C1` (stereo not drawn) [Meptazinol]: the oral bioavailability in data set [3] is < 10%.

For the compound `COc1ccc2c3c1O[C@H]1[C@@H](O)CC[C@H]4[C@@H](C2)N(C)CC[C@@]341` [dihydrocodeine], in data set [4], the “share of an oral dose converted to dihydromorphine” value is “less than 2%”.

In the case of `CCC1(c2cccc(OC(=O)Nc3ccc(C(=O)O)cc3)c2)CCCCN(C)C1` (stereo not drawn) [meptazinol p-amino-benzoylcarbamate, Meptazinol para-amino benzoic acid carbamate], the Hygroscopic result was “yes” in data set [1] and “very hygroscopic” in data set [1] (listed as meptazinol p-amino-benzoic acid carbamate). Besides, the “Good thermal profile” value in data set [2] is recorded as “no”.

As for `CCC1(c2cccc(OC(=O)Nc3ccc(C(=O)O)cc3)c2)CCCCN(C)C1.Cl` (stereo not drawn) [meptazinol p-amino-benzoylcarbamate•HCl], the Hygroscopic result in data set [1] is listed as “yes”. Moreover, in data set [2], the “Good thermal profile” value is “no”.

For the compound “(Z)-3-[2-(propionyloxy)phenyl]-2-propenoic ester”, in data set [5], the “bioavailability over meptazinol itself” value is “significant increase”.

Source of the values: patent US20120165315A1, “[…] PRODRUG SALTS” (priority 2010, published 2012).
